Experimental data published in patent US20150237877A1, “METHODS OF HANDLING PERSIMMONS” (AGROFRESH INC., priority 2012, published 2015).

Columns and labels:
Format in all cases: in vivo, Persimmon (Diasoyros kaki)
persimmons, variety Fuyu = test: Example 3: pulp firmness of persimmons, MCP before storage; conditions: for Pulp Firmness, Days 0 / Pulp Firmness, Days 3 / Pulp Firmness, Days 6: 500 ppb of MCP; for Pulp Firmness, Days 0: Day 0 after 60 days cold storage; for Pulp Firmness, Days 3: Day 3 after 60 days cold storage; for Pulp Firmness, Days 6: Day 6 after 60 days cold storage
Protocol: Persimmons are harvested in Madera—Calif. —USA and packed in cardboard boxes and shipped to Davis—Calif. At the same day of harvest part of the persimmons are packed in MAP bags. • Location: USA • Variety: Fuyu (non astringent, doesn't need ethanol application, ready to eat after harvest) • Storage at 0° C. for 60 days • MCP application before the storage • MAP Bag: Amcor bag type 30EF90.
The Amcor bag type 30EF90 has dimensions of 39.5″ (100.3 cm) wide and 35″ (88.9 cm) long. The bag is not perforated and has 25 microns thickness with an oxygen (O2) permeability of 6750 cc/[m^2 day]. The OTR of the bag is calculated to be 7560 cm^3/day.
(§1) The Test Protocol is as follows. 4 MAP bags are packed. Each bag holds approximately 10 kg (22.5 lb) of persimmons. One such bag is packed in each RPC (Recycle Plastic Container). Total weight of persimmons in MAP bags is approximately 40 kg. Approximately 40 kg of persimmons are placed into RPC identical to those used for the MAP bags.
The MAP-packaged persimmons are packaged as follows: 80 fruits, approximately 10 kg were carefully placed into microperforated bags, and the bags are sealed by twisting the open side of the bag, folding down the twisted end, and placing a rubber band around the twisted and folded end of the bag.
The appropriate weight of persimmons is placed in each bag after harvest and shipment. Bags are placed in RPC carrying devices. Persimmons then are moved to a Cold Room at 0° C.
(§2) On the same day the persimmons are bagged, each treatment set is marked, placed in a hermetical chamber at the Cold Room. All chambers are of equal size and packed the same way. Treatment lasts for 12 hours. In the chambers for the “MCP” treatment groups, at the beginning of the treatment period, SmartTabs™ tablets are placed in the chamber. The amount of SmartTab™ tablets is chosen to achieve the indicated concentration of 1-methylcyclopropene in the atmosphere of the chamber.
After 60 days of storage at Cold Room, the bags are removed and the RPCs are moved into racks at room temperature for storage and observation.
Evaluation firmness is as follows. Day “zero” is the day the persimmons are removed from the cold storage.
(§3) For the Pulp Firmness evaluation, the persimmons have the skin removed with a peeler and the pulp firmness is measured with a Firmness Texture Analyzer (FTA) with a probe of 8 mm.

[1] = tested on: persimmons, variety Rojo Brillante; test: Example 4: pulp firmness of persimmons, MCP before storage, CO2 astringency removal after storage; conditions: cold storage, then room temperature for 7 days, MCP 600 ppb where applied
Protocol: Persimmons are harvested in Valencia—Spain and in the packing house part of the fruits are packed in plastic boxes and the other part is packed in MAP bags. • Location: Spain • Variety: Rojo Brillante (astringent, need CO2 application, ready to eat after astringency removal process) • Storage at 0° C. for 72 days • MCP application before the storage • MAP Bag: PE/EVA OP and Nylon bag with dimensions of 27″ (68.6 cm) width by 28″ (71.1 cm) length made from Kenylon 6250 Polyamide Film available from FM • Packaging
The Test Protocol is as follows. • a. PE/EVA OP Bags: 3 kg (6.6 lb) of fruits per bag, 5 bags per box and 6 RPC boxes • b. PE/EVA 8P Bags: 1 kg (2.2 lb) of fruits per bag, 15 bags per box and 6 RPC boxes • c. Nylon 0.2 and 0.35: 10 kg (22.5 lb) of fruits per bag, 2 bag per box and 6 RPC boxes • d. No Bag: 20 kg of fruits per box and 6 RPC boxes
The MAP-packaged persimmons are packaged as follows: fruits are carefully placed into microperforated bags, and the bags are sealed by twisting the open side of the bag, folding down the twisted end, and placing a rubber band around the twisted and folded end of the bag.
The appropriate weight of persimmons is placed in each bag after harvest and shipment. […]
For the Pulp Firmness evaluation, the persimmons have the skin removed with a peeler and the pulp firmness is measured with a Manual Penetrometer with a probe of 8 mm.

persimmons = test: Example 2: pulp firmness of persimmons, 1-MCP and ethanol before storage; conditions: for Pulp Firmness, Day 0 / Pulp Firmness, Day 1 / Pulp Firmness, Day 4 / Pulp Firmness, Day 7 / Pulp Firmness, Day 10: 1000 ppb of MCP
From the text: This Example uses a similar test to Example 1 but with the ethanol application before the storage, at the same time as 1-MCP application.
Persimmons are harvested in Mogi das Cruzes—SP—Brazil and packed in RPC (Recycle Plastic Container) and shipped to Piracicaba—SP. At the same day of harvest part of the persimmons are packed in MAP bags.
as §1, with “16” for “10”, “(36” for “(22.5”, “RPC.” for “RPC (Recycle Plastic Container).”, “64” for “40”
(§4) The MAP-packaged persimmons are packaged as follows: 80 fruits, approximately 16 kg are carefully placed into microperforated bags, and the bags are sealed by twisting the open side of the bag, folding down the twisted end, and placing a rubber band around the twisted and folded end of the bag.
(§5) The appropriate weight of persimmons is placed in each bag after harvest and shipment. Bags are placed in RPC carrying devices. Persimmons are moved to a Cold Room at 12° C. next.
On the same day the persimmons are bagged, each treatment set is marked, placed in a hermetical chamber at the Cold Room. All chambers are of equal size and packed the same way. Treatment lasts for 12 hours. In the chambers for the “MCP” treatment groups, at the beginning of the treatment period, SmartTabs™ tablets are placed in the chamber. The amount of SmartTab™ tablets is chosen to achieve the indicated concentration of 1-methylcyclopropene in the atmosphere of the chamber. At the same time the persimmons are exposed to ethanol with the purpose of removing the astringency (3.5 mL/kg of fruit).
After the storage at Cold Room, the bags are removed and the RPCs are moved into racks at room temperature for storage and observation.
Evaluation firmness is as follows. Day “zero” is the day the persimmons are harvested and Day “one” is the day the persimmons are removed from the cold storage.
as §3

[2] = tested on: persimmons, variety Giombo; test: Example 1: pulp firmness of persimmons, MCP before storage, ethanol after storage; conditions: for Pulp Firmness, Day 0 / Pulp Firmness, Day 1 / Pulp Firmness, Day 4: 1000 ppb of MCP
Protocol: Persimmons are harvested in Mogi das Cruzes—SP—Brazil and packed in RPC (Recycle Plastic Container) and shipped to Piracicaba—SP. At the same day of harvest part of the persimmons are packed in MAP bags. • Location: Brazil • Variety: Giombo (astringent and need to be treated with ethanol to be ready to eat) • Storage at 12° C. for 15 days • MAP Bag: a Nylon bag with dimensions of 27″ (68.6 cm) width by 28″ (71.1 cm) length made from Kenylon 6250 Polyamide Film available from FM Packaging. • MCP application before the storage • Ethanol Application after the storage
For the MAP bag used, the base film has 25 microns thickness without laser holes. The oxygen (O2) permeation of the MAP bag used is about 28 cc/m^2-day and the CO2 permeation is about 227 cc/m^2-day. The bags are laser drilled in the length direction with 105 micron holes at two locations 9″ (22.9 cm) from each side of the bag. The hole spacing is 9.06 mm. The total number of laser holes in the 20″ (8″ for tie off) length direction of the bag are about 228 holes. At an average hole diameter of 105 micron (pi×r^2=8630 micron^2), the 228 holes can provide an open area of ˜2.0 mm^2. The OTR of the bag is calculated to be 32,250 cm^3/day.
as §1, with “16” for “10”, “(36” for “(22.5”, “RPC.” for “RPC (Recycle Plastic Container).”, “64” for “40”
as §4, §5, §2
Persimmons used in this trial are an astringent variety. To remove the astringency the fruits were treated with ethanol after the 15 days at cold storage.
After removed the bags for the MAP bag groups, all the fruits are placed in a hermetical chamber and treated with ethanol (3.5 mL/kg of fruit) for 12 hours.
After the treatment in the chambers, the RPCs are moved into racks at room temperature for storage and observation.
Firmness evaluation is as follows. Day “zero” was the day the persimmons are harvested and Day “one” is the day the persimmons are removed from the ethanol treatment.
as §3

[3] = Day 0 = day of harvest, MCP 1000 ppb where applied

SMILES: CC1=CC1 [SmartFresh, 1-methylcyclopropene]
- Firmness results, d60 + 3 day (persimmons, variety Fuyu; 60 days at 0° C. + 3 days at room temperature, MCP 500 ppb where applied): 9.1 lbf
- Firmness results, d60 + 6 day (persimmons, variety Fuyu; 60 days at 0° C. + 6 days at room temperature, MCP 500 ppb where applied): 6.7 lbf
- Firmness results, d60 + 0 day (persimmons, variety Fuyu; 60 days at 0° C., day removed from the cold storage, MCP 500 ppb where applied): 7.9 lbf
- Pulp Firmness, Days 0 (persimmons, variety Fuyu; Bag MAP (Amcor)): 11.1 lbf
- Pulp Firmness, Days 3 (persimmons, variety Fuyu; Bag MAP (Amcor)): 10.0 lbf
- Pulp Firmness, Days 6 (persimmons, variety Fuyu; Bag MAP (Amcor)): 9.9 lbf
- Pulp Firmness, Days 0 (persimmons, variety Fuyu; No Bag): 7.9 lbf
- Pulp Firmness, Days 3 (persimmons, variety Fuyu; No Bag): 9.1 lbf
- Pulp Firmness, Days 6 (persimmons, variety Fuyu; No Bag): 6.7 lbf
- Firmness difference (Δ) as compared to the control group, d60 + 6 day (persimmons, variety Fuyu; d60 + 6 day): 6.2 lbf
- firmness provided to the persimmons / maintained higher than the untreated fruits (persimmons, variety Fuyu; in vivo): 6.2 lbf
- Firmness [1]: 3.33 kg
- Δ, difference between the firmness for the treatment and the firmness for the No Bag treatment [1]: 1.33 kg
- Pulp Firmness, Day 0 (persimmons; Bag MAP): 20.99 lbf
- Pulp Firmness, Day 1 (persimmons; Bag MAP, Day 1): 18.16 lbf
- Pulp Firmness, Day 4 (persimmons; Bag MAP, Day 4): 16.94 lbf
- Pulp Firmness, Day 7 (persimmons; Bag MAP): 15.84 lbf
- Pulp Firmness, Day 10 (persimmons; Bag MAP): 14.23 lbf
- Firmness results, Day 0 (persimmons; [3]): 20.99 lbf
- Firmness difference (Δ) as compared to the control group, Day 1 (persimmons; Day 1): 0.15 lbf
- Firmness results, Day 1 (persimmons; Day 1 = day removed from the cold storage (12° C.), MCP 1000 ppb where applied): 16.65 lbf
- Firmness difference (Δ) as compared to the control group, Day 4 (persimmons; Day 4): −0.39 lbf
- Firmness results, Day 4 (persimmons; Day 4, room temperature after cold storage, MCP 1000 ppb where applied): 14.74 lbf
- Pulp Firmness, Day 0 (persimmons; No Bag): 20.99 lbf
- Pulp Firmness, Day 1 (persimmons; No Bag, Day 1): 17.87 lbf
- Pulp Firmness, Day 4 (persimmons; No Bag, Day 4): 15.09 lbf
- Pulp Firmness, Day 7 (persimmons; No Bag): 13.70 lbf
- Pulp Firmness, Day 10 (persimmons; No Bag): 12.62 lbf
- firmness provided to the persimmons (persimmons; after 7 day at room temperature): 1.55 lbf
- Pulp Firmness, Day 0 ([2]; Bag MAP): 20.99 lbf
- Pulp Firmness, Day 1 ([2]; Bag MAP): 18.62 lbf
- Pulp Firmness, Day 4 ([2]; Bag MAP, Day 4): 18.18 lbf
- Firmness results, Day 0 [2, 3]: 20.99 lbf
- Firmness results, Day 1 ([2]; Day 1 = day removed from ethanol treatment, after 15 days at 12° C., MCP 1000 ppb where applied): 17.87 lbf
- Firmness difference (Δ) as compared to the control group, Day 4 ([2]; Day 4): 0.89 lbf
- Firmness results, Day 4 ([2]; Day 4, room temperature after 15 days at 12° C. and ethanol, MCP 1000 ppb where applied): 15.09 lbf
- Firmness difference (Δ) as compared to the control group, Day 7 ([2]; Day 7): 1.55 lbf
- Firmness results, Day 7 ([2]; Day 7, room temperature after 15 days at 12° C. and ethanol, MCP 1000 ppb where applied): 13.70 lbf
- Firmness results, Day 10 ([2]; Day 10, room temperature after 15 days at 12° C. and ethanol, MCP 1000 ppb where applied): 12.62 lbf
- Pulp Firmness, Day 0 ([2]; No Bag): 20.99 lbf
- Pulp Firmness, Day 1 ([2]; No Bag): 16.65 lbf
- Pulp Firmness, Day 4 ([2]; No Bag, Day 4): 14.74 lbf
- firmness provided to the persimmons ([2]; after 1 day at room temperature): 0.15 lbf
